Measured values reported in patent publication US20240124467A1, “FUSED PYRIMIDINE COMPOUNDS AS INHIBITORS OF MENIN-MLL INTERACTION” (Biomea Fusion, Inc., priority 2020, published 2024).
Like-named read-outs stand apart in the source and are kept apart here.

How the values were obtained:
Assay type in all cases: cell-based
MV4-11 = experiment: Cell proliferation inhibition (CellTiter-Glo), MV4-11 cells; settings: Homo sapiens, MV4-11 (MLL-AF4)
Method: (§1) The present example evaluates the ability of compounds described herein, inhibitors of Menin/MLL interaction, to inhibit cell proliferation. The proliferation inhibitory effect was investigated in human MLL-leukemia cells selected on the bases of MLL fusion proteins and listed in the table below.
(§2) ATP is present in all metabolically active cells and is considered as a marker for cell viability and proliferation. The metabolic cell activity was determined using the CellTiter-Glo kit from Promega, an ATP monitoring system based on the production of luminescence by the reaction of ATP with added UltraGlo® recombinant luciferase (Kawano et al., 2016, PLOS One, 8:11(7):e0158888), according to the supplier's experimental recommendations. The assay is based on a 96 well plate format. All experiments were carried out in duplicate in one test occasion.
(§3) Test items were dissolved at 20 mM in DMSO with purity ≥99.9% (Sigma catalog no. D8418) and stored at −20° C. Cells were maintained in RPMI-1640 medium (Invitrogen catalog no. 618700) supplemented with 10% of Heat Inactivated FBS (Invitrogen catalog no. 10500) and 1% Pen-Strep (Invitrogen catalog no. 15140) and cultured at 37° C. in a humidified incubator with 5% CO2. Cell lines were grown in suspension and the cell density was maintained in a range of 5×10^4-1×10^6 viable cells/ml where possible. Cells were pelleted at 130 g×5 min.
(§4) Serial dilutions of compounds 1 to 3 in DMSO 100% were prepared starting from a 2.5 mM solutions (prepared by diluting 1:8 the 20 mM stock solution) to generate a 7 point concentration response curve (CRC). Seven concentrations of test compounds (e.g., 5.00×10^−6-1.67×10^−6-5.56×10^−7-1.85×10^−7-6.17×10^−8-2.06×10^−8-6.86×10^−9 M) were assessed in duplicate in an individual test occasion in parallel in the selected cell lines. KO-539 was used as a reference compound and tested in duplicate at seven similar concentrations. 100% of proliferation was represented by the untreated cells (0.2% DMSO).
(§5) Cell proliferation inhibition was monitored at both the following end points: Day 4 (T4) and Day 7 (T7). For the appropriate cell density during the exponential cell growth and re-supply with fresh compound solution at T4, cells were diluted (1:4) with fresh medium containing the compound concentration (1×).
(§6) For each plate to test, one 0.4 μL copy plate and four 0.3 μL copy plates were stamped into 96-well plates not treated for cell adhesion (Sarstedt—cat. no. 82.1581.001) by acoustic liquid handling (Echo) at a concentration which was 500 fold the final assay concentration. Stamped plates were stored at −20° C.
(§7) On Day 0, the day of the experiment cell line suspensions were counted by Cell Viability Analyser, Vi-CELL (Beckman Coulter AY15292), and diluted with fresh medium to obtain the following cell densities: K-562 500 c/ml, MOLM-13 1,000 c/ml, MV4-11 10,000 c/ml, OCI-AML-3 500 c/ml, and U-937 500-1,000 c/ml. 200 μL/well and 150 μL/well of cell suspension were added into the 0.4 μL/well and 0.3 μL/well compound plates, respectively. Cell plate containing 200 μL/well suspension were incubated at 37° C. in a humidified incubator with 5% CO2. From each well of the 150 μL/well cell assay plate, 100 μL were harvested and transferred into a 96-well Optiplate (Perkin Elmer, cat. no. 6005290). Cell viability was measured as described below.
(§8) On Day 4, 150p/well of fresh medium was added into a new 0.3 μL/well copy compound plates. From each well of the 200 μL/well cell assay plate, 100 μL was sampled for the cell viability measurement as described below. 50p was harvested and added to the 150p/well compound plate prepared as described in the first point to dilute 1:4 the cell suspension. The cell assay plate diluted and containing 200 μL/well suspension was incubated at 37° C. in a humidified incubator with 5% CO2.
(§9) On Day 4, 150p/well of fresh medium was added into a new 0.3 μL/well copy compound plates. […]

MOLM-13 = experiment: Cell proliferation inhibition (CellTiter-Glo), MOLM-13 cells; settings: Homo sapiens, MOLM-13 (MLL-AF9)
Method: as §1, §2, §3, §4, §5, §6, §7, §8, §9

K-562 = experiment: Cell proliferation inhibition (CellTiter-Glo), K-562 cells; settings: Homo sapiens, K-562 (BCR-ABL)
Method: as §1, §2, §3, §4, §5, §6, §7, §8, §9

[1] = 96 h, Day 4, read-out: MV-4:11 IC50 μM (Day 4)*
[2] = 168 h, Day 7, read-out: MV-4:11 IC50 μM (Day 7)*
[3] = 96 h, Day 4, read-out: MOLM-13 Day IC50 μM (Day 4)*
[4] = 168 h, Day 7, read-out: MOLM-13 Day IC50 μM (Day 7)*
[5] = K562, 96 h, Day 4, read-out: K-562 IC50 μM (Day 4)
[6] = K562, 168 h, Day 7, read-out: K-562 IC50 μM (Day 7)*

IC50 (MV4-11; [1])	IC50 (MV4-11; [2])	IC50 (MOLM-13; [3])	IC50 (MOLM-13; [4])	IC50 (K-562; [5])	IC50 (K-562; [6])	Compound
0.218 µM	0.17 µM	0.154 µM	0.157 µM	0.744 µM	0.636 µM	C=CC(=O)N1CCC(Nc2ccnc(C(=O)Nc3ccc(-c4cc5c(N6CCOCC6)ncnc5[nH]4)cc3)c2)CC1 [Compound B0700-616, 4-((1-acryloylpiperidin-4-yl)amino)-N-(4-(4-morpholino-7H-pyrrolo[2,3-d]pyrimidin-6-yl)phenyl)picolinamide]
4.22 µM	–	5.21 µM	–	> 10 µM	–	C=CC(=O)NC1CN(c2ccnc(NC3CC4(CCN(c5nc6c(N7CCOCC7)ncnc6[nH]5)CC4)C3)c2)C1 [Compound B0700-507, N-(1-(2-((7-(6-morpholino-9H-purin-8-yl)-7-azaspiro[3.5]nonan-2-yl)amino)pyridin-4-yl)azetidin-3-yl)acrylamide]
0.47 µM	–	0.54 µM	–	1.48 µM	–	C=CC(=O)N[C@@H]1CCCN(Cc2ccnc(C(=O)Nc3ccc(-c4cc5c(C67CCOCC6C7)ncnc5[nH]4)cc3)c2)C1 (stereo partly drawn) [Compound B0700-706]
3.88 µM	–	5.68 µM	–	> 10 µM	–	C=CC(=O)N[C@H]1CCN(c2cccc(CS(=O)(=O)Nc3ccc(-c4cc5c(N6CCOCC6)ncnc5[nH]4)cn3)c2)C1 [Compound B0700-536]
0.419 µM	0.34 µM	0.495 µM	0.924 µM	> 10 µM	> 10 µM	C=CC(=O)N[C@@H]1CCCN(Cc2ccnc(C(=O)Nc3ccc(-c4cc5c(N6CCC(O)CC6)ncnc5[nH]4)cc3)c2)C1 [Compound B0700-568]
0.84 µM	–	1.07 µM	–	> 10 µM	–	C=CC(=O)N[C@@H]1CCCN(c2cccc(C(C)S(=O)(=O)Nc3ccc(-c4cc5c(N6CCOCC6)ncnc5[nH]4)cc3)c2)C1 (stereo partly drawn) [Compound B0700-545]
> 10 µM	–	> 10 µM	–	> 10 µM	–	C=CC(=O)N[C@@H]1CCCN(Cc2cccc(S(=O)(=O)Nc3ccc(-c4nc5c(N6CCOCC6)ncnc5s4)cc3)c2)C1 [Compound B0700-532, (R)—N-(1-(3-(N-(4-(7-morpholinothiazolo[5,4-d]pyrimidin-2-yl)phenyl)sulfamoyl)benzyl)piperidin-3-yl)acrylamide]
6.83 µM	–	3.46 µM	–	> 10 µM	–	C=CC(=O)N[C@@H]1CCCN(Cc2ccnc(C(=O)NC3CCC(c4cc5c(N6CCOCC6)ncnc5[nH]4)CC3)c2)C1 (stereo partly drawn) [Compound B0700-526, (R)-4-((3-acrylamidopiperidin-1-yl)methyl)-N-(4-(4-morpholino-7H-pyrrolo[2,3-d]pyrimidin-6-yl)cyclohexyl)picolinamide]
0.345 µM	–	0.311 µM	–	0.805 µM	–	C=CC(=O)N[C@@H]1CCCN(Cc2ccc(C)c(C(=O)Nc3ccc(-c4cc5c(N6CCOCC6)ncnc5[nH]4)cc3)c2)C1 [Compound B0700-531]
0.436 µM	–	0.374 µM	–	> 10 µM	–	C=CC(=O)N[C@@H]1CCCN(c2cccc(CS(=O)(=O)Nc3ccc(-c4cc5c(N6CCOCC6)ncnc5[nH]4)cc3)c2)C1 [Compound B0700-539]
> 10 µM	–	> 10 µM	–	5.18 µM	–	C=CC(=O)N1CC(N2CCCC(CNS(=O)(=O)N3CCN(c4nc5c(N6CCOCC6)ncnc5[nH]4)CC3)C2)C1 (stereo not drawn) [Compound B0700-512]
0.477 µM	0.41 µM	0.447 µM	0.51 µM	4.55 µM	4.86 µM	C=CC(=O)N[C@H]1CCN(c2cccc(C(C)(C)C(=O)Nc3ccc(-c4cc5c(N6CCOCC6)ncnc5[nH]4)cc3)c2)C1 [Compound B0700-617, (S)—N-(1-(3-(2-methyl-1-((4-(4-morpholino-7H-pyrrolo[2,3-d]pyrimidin-6-yl)phenyl)amino)-1-oxopropan-2-yl)phenyl)pyrrolidin-3-yl)acrylamide]
0.397 µM	–	0.282 µM	–	> 10 µM	–	[2H]C1([2H])OC([2H])([2H])C([2H])([2H])N(c2ncnc3[nH]c(-c4ccc(NC(=O)c5cc(CN6CCC[C@@H](NC(=O)C=C)C6)ccn5)cc4)cc23)C1([2H])[2H] [Compound B0700-601, (R)-4-((3-acrylamidopiperidin-1-yl)methyl)-N-(4-(4-(morpholino-d8)-7H-pyrrolo[2,3-d]pyrimidin-6-yl)phenyl)picolinamide]
> 10 µM	–	> 10 µM	–	> 10 µM	–	C=CC(=O)N[C@@H]1CCCN(Cc2cccc(S(=O)(=O)NC3CCN(c4nc5c(N6CCOCC6)ncnc5s4)CC3)c2)C1 [Compound B0700-533]
> 10 µM	–	> 10 µM	–	> 10 µM	–	C=CC(=O)N[C@H]1CCN(c2cccc(CS(=O)(=O)NC3CCN(c4nc5c(N6CCOCC6)ncnc5s4)CC3)c2)C1 [Compound B0700-537]
1.6 µM	–	1.23 µM	–	> 10 µM	–	Cc1cc(C)n2c1C=C1C=CC(CCC(=O)NCCCCN(C)C/C=C/C(=O)Nc3ccc(CC(=O)Nc4ccc(-c5cc6c(N7CCOCC7)ncnc6[nH]5)cc4)cc3)=[N+]1[B-]2(F)F [Compound B0700-504]
0.764 µM	–	0.683 µM	–	> 10 µM	–	CN(C/C=C/C(=O)N[C@@H]1CCCN(Cc2ccnc(C(=O)Nc3ccc(-c4cc5c(N6CCOCC6)ncnc5[nH]4)cc3)c2)C1)C1CC1 [Compound B0700-524, (R,E)-4-((3-(4-(cyclopropyl(methyl)amino)but-2-enamido)piperidin-1-yl)methyl)-N-(4-(4-morpholino-7H-pyrrolo[2,3-d]pyrimidin-6-yl)phenyl)picolinamide]
1.75 µM	–	3.59 µM	–	> 10 µM	–	C=CC(=O)N[C@@H]1CCCN(c2cccc([C@@H](C)S(=O)(=O)Nc3ccc(-c4cc5c(N6CCOCC6)ncnc5[nH]4)cc3)c2)C1 [Compound B0700-546]
0.696 µM	1.03 µM	0.923 µM	0.523 µM	0.554 µM	0.186 µM	C=CC(=O)N[C@@H]1CCCN(Cc2ccnc(C(=O)Nc3ccc(-c4cc5c(N6CCOCC6)nccc5[nH]4)cc3)c2)C1 [Compound B0700-614, (R)-4-((3-acrylamidopiperidin-1-yl)methyl)-N-(4-(4-morpholino-1H-pyrrolo[3,2-c]pyridin-2-yl)phenyl)picolinamide]
0.051 µM	–	0.069 µM	–	0.074 µM	–	C=CS(=O)(=O)N[C@@H]1CCCN(Cc2ccnc(C(=O)Nc3ccc(-c4cc5c(N6CCOCC6)ncnc5[nH]4)cc3)c2)C1 [Compound B0700-333, (R)—N-(4-(4-morpholino-7H-pyrrolo[2,3-d]pyrimidin-6-yl)phenyl)-4-((3-(vinylsulfonamido)piperidin-1-yl)methyl)picolinamide]
